Test results as given in patent publication US10668051B2, “Modulators of calcium release-activated calcium channel” (Rhizen Pharmaceuticals SA, priority 2009, dated 2020).
Where a name gives a salt, the structure may show the parent alone.

Target: CRAC channels (Homo sapiens (Human), UniProt Q96D31)
Experiment: In-vitro CRAC channel inhibition assay in Jurkat cells (thapsigargin-induced calcium influx)
Format: cell-based
Description: 1A. In-Vitro CRAC Channel Inhibition Assay in Jurkat Cells
Plate is incubated at 37° C./5% CO2 for 30 min followed by further 15 min incubation at room temperature. Test compounds (DMSO stocks diluted in Ca^2+ and Mg^2+ free Hanks buffer) at desired concentrations were added to the wells and incubated for 15 min. Thapsigargin (1 μM final concentration) was added to the wells and incubated for 15 min to inhibit the Sarco-endoplasmic reticulum Ca^2+ ATPase pump thereby depleting endoplasmic calcium and raising cytosolic calcium concentrations. Store-operated calcium entry was initiated by adding extracellular Ca^2+ to a final concentration of 1.8 mM. Fluorescence was monitored over 5 min on a plate reader (BMG Labtech., Germany) with excitation at 485 nm and; an emission wavelength at 520 nm. Data were analyzed using GraphPad Prism. IC50 for each compound was determined based on the percent inhibition of thapsigargin-induced calcium influx into cells.

Sequence of CRAC channels (Q96D31 whole entry): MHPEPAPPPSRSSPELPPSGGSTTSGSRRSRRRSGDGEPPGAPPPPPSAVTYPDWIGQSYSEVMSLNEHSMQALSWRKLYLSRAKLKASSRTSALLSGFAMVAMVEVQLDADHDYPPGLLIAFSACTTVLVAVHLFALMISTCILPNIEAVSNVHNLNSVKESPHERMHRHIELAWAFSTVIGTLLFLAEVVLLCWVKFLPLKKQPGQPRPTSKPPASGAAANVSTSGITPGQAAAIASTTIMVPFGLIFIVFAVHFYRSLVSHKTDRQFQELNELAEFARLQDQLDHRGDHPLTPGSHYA

Compound | inhibition at 1 µM | % inhibition (1 uM)
N-{4-[3-cyclopropyl-5-(difluoromethyl)-1H-pyrazol-1-yl]-3-fluorophenyl}-2,6-difluorobenzamide and N-{4-[5-cyclopropyl-3-(difluoromethyl)-1H-pyrazol-1-yl]-3-fluorophenyl}-2,6-difluorobenzamide [Example 135] |  | 100%
CSc1ccc(Cl)c(C(=O)Nc2ccc(-n3nc(C4CC4)cc3C3CC3)cc2)c1 [Example 12, 2-chloro-N-[4-(3,5-dicyclopropyl-1H-pyrazol-1-yl)phenyl]-5-(methylthio)benzamide] | 90.8% | 
Cc1ncsc1C(=O)Nc1ccc(-n2nc(C(F)(F)F)cc2C2CC2)nc1 [Example 102, N-{6-[5-cyclopropyl-3-(trifluoromethyl)-1H-pyrazol-1-yl]pyridin-3-yl}-4-methylthiazole-5-carboxamide hydrochloride] | 34.9% | 
O=C(Nc1ccc(-n2nc(C(F)(F)F)cc2C2CC2)c(F)c1)C1(c2ccccc2)CCC1 [Example 131, N-{4-[5-cyclopropyl-3-(trifluoromethyl)-1H-pyrazol-1-yl]-3-fluorophenyl}-1-phenylcyclobutanecarboxamide] | 0% | 
O=C(Nc1c(F)cccc1F)c1ccc(-n2nc(C(F)(F)F)cc2C2CC2)nc1 [Example 122, 6-[5-cyclopropyl-3-(trifluoromethyl)-1H-pyrazol-1-yl]-N-(2,6-difluorophenyl) nicotinamide] | 100% | 
Cc1nnsc1C(=O)Nc1ccc(-n2nc(C(F)(F)F)cc2C2CC2)nc1 [Example 101, N-{6-[5-cyclopropyl-3-(trifluoromethyl)-1H-pyrazol-1-yl]pyridin-3-yl}-4-methyl-1,2,3-thiadiazole-5-carboxamide] | 93% | 
Cc1ncncc1NC(=O)Nc1ccc(-n2nc(C(F)(F)F)cc2C2CC2)c(F)c1 [Example 97, 1-{4-[5-cyclopropyl-3-(trifluoromethyl)-1H-pyrazol-1-yl]-3-fluorophenyl}-3-(4-methylpyrimidin-5-yl)urea] | 97% | 
O=C(Nc1ccc(-n2nc(C3CC3)cc2C2CC2)c(F)c1)c1c(Cl)cncc1Cl [Example 127, 3,5-dichloro-N-[4-(3,5-dicyclopropyl-1H-pyrazol-1-yl)-3-fluorophenyl]isonicotinamide] | 66.3% | 
CS(=O)(=O)c1cccc(C(=O)Nc2ccc(-n3nc(C4CC4)cc3C3CC3)cc2)c1 [Example 10] | 49.5% | 
O=C(Nc1ccc(-n2nc(C3CC3)cc2C2CC2)nc1)c1cccc(F)c1F [Example 44, N-[6-(3,5-dicyclopropyl-1H-pyrazol-1-yl)pyridin-3-yl]-2,3-difluorobenzamide hydrochloride] | 63.4% | 
Cc1nc(C)c(C(=O)Nc2ccc(-n3nc(C4CC4)cc3C3CC3)nc2)s1 [Example 40, N-[6-(3,5-dicyclopropyl-1H-pyrazol-1-yl)pyridin-3-yl]-2,4-dimethylthiazole-5-carboxamide] | 12.6% | 
O=C(Nc1ccc(-n2nc(C(F)(F)F)cc2C2CC2)cc1)c1c(F)cccc1F [Example 62, N-{4-[5-cyclopropyl-3-(trifluoromethyl)-1H-pyrazol-1-yl]phenyl}-2,6-difluorobenzamide] | 100% | 
Cc1ncncc1NC(=O)Nc1ccc(-n2nc(C(F)(F)F)cc2C2CC2)cc1 [Example 77, 1-{4-[5-cyclopropyl-3-(trifluoromethyl)-1H-pyrazol-1-yl]phenyl}-3-(4-methylpyrimidin-5-yl)urea] | 44% | 
Cc1ccccc1C(=O)Nc1ccc(-n2nc(C(F)(F)F)cc2C2CC2)c(F)c1 [Example 86, N-{4-[5-cyclopropyl-3-(trifluoromethyl)-1H-pyrazol-1-yl]-3-fluorophenyl}-2-methylbenzamide] | 86.6% | 

The next lines start with results.

inhibition at 1 µM | Compound | % inhibition (1 uM)
18.6% | Cc1ncncc1NC(=O)c1ccc(-n2nc(C(F)(F)F)cc2C2CC2)c(F)c1 [Example 134, 4-[5-cyclopropyl-3-(trifluoromethyl)-1H-pyrazol-1-yl]-3-fluoro-N-(4-methylpyrimidin-5-yl)benzamide] | 
31% | Cc1ncsc1C(=O)Nc1ccc(-n2nc(C(F)(F)F)c(Cl)c2C2CC2)nc1 [Example 123, N-{6-[4-chloro-5-cyclopropyl-3-trifluoromethyl-1H-pyrazol-1-yl]pyridin-3-yl}-4-methylthiazole-5-carboxamide] | 
10.4% | O=C(Nc1ccc(-n2nc(C3CC3)cc2C2CC2)nc1)c1ccncc1 [Example 47, N-[6-(3,5-dicyclopropyl-1H-pyrazol-1-yl)pyridin-3-yl]isonicotinamide dihydrochloride] | 
40.5% | Cc1ncncc1C(=O)Nc1ccc(-n2nc(C(F)(F)F)c(Cl)c2C2CC2)c(F)c1 [Example 119, N-{4-[4-chloro-5-cyclopropyl-3-(trifluoromethyl)-1H-pyrazol-1-yl]-3-fluorophenyl}-4-methylpyrimidine-5-carboxamide] | 
29% | O=C(CN1CCNCC1)Nc1ccc(-n2nc(C3CC3)cc2C2CC2)cc1 [Example 25, N-[4-(3,5-dicyclopropyl-1H-pyrazol-1-yl)phenyl]-2-(piperazin-1-yl)acetamide hydrochloride] | 
100% | Cc1oncc1C(=O)Nc1ccc(-n2nc(C(F)(F)F)cc2C2CC2)c(F)c1 [Example 84, N-{4-[5-cyclopropyl-3-(trifluoromethyl)-1H-pyrazol-1-yl]-3-fluorophenyl}-5-methylisoxazole-4-carboxamide] | 
72.2% | Cc1nc(C)c(C(=O)Nc2ccc(-n3nc(C4CC4)cc3C3CC3)cc2)s1 [Example 3, N-[4-(3,5-dicyclopropyl-1H-pyrazol-1-yl)phenyl]-2,4-dimethylthiazole-5-carboxamide] | 
39.1% | CS(=O)(=O)c1cccc(C(=O)Nc2ccc(-n3nc(C(F)(F)F)cc3C3CC3)cc2)c1 [Example 63, N-{4-[5-cyclopropyl-3-(trifluoromethyl)-1H-pyrazol-1-yl]phenyl}-3-(methylsulfonyl)benzamide] | 
100% | O=C(Nc1c(F)cccc1F)c1ccc(-n2nc(C(F)(F)F)cc2C2CC2)cc1 [Example 79, 4-[5-cyclopropyl-3-(trifluororomethyl)-1H-pyrazol-1-yl]-N-(2,6-difluorophenyl) benzamide] | 
100% | O=C(Cc1ccccn1)Nc1ccc(-n2nc(C(F)(F)F)cc2C2CC2)cc1 [Example 71, N-{4-[5-cyclopropyl-3-(trifluoromethyl)-1H-pyrazol-1-yl]phenyl}-2-(pyridin-2-yl)acetamide hydrochloride] | 
100% | Cc1ncsc1C(=O)Nc1ccc(-n2nc(C3CC3)cc2C2CC2)c(F)c1 [Example 29, N-[4-(3,5-dicyclopropyl-1H-pyrazol-1-yl)-3-fluorophenyl]-4-methylthiazole-5-carboxamide] | 
0% | Cc1nnsc1NC(=O)Nc1ccc(-n2nc(C(F)(F)F)cc2C2CC2)cc1 [Example 75, 1-{4-[5-cyclopropyl-3-(trifluoromethyl)-1H-pyrazol-1-yl]phenyl}-3-(4-methyl-1,2,3-thiadiazol-5-yl)urea] | 
91.6% | O=C(Nc1ccc(-n2nc(C(F)(F)F)cc2C2CC2)c(F)c1)c1cccc(F)c1F [Example 87, N-{4-[5-cyclopropyl-3-(trifluoromethyl)-1H-pyrazol-1-yl]-3-fluorophenyl}-2,3-difluorobenzamide] | 
73.4% | O=C(Cc1ccccn1)Nc1ccc(-n2nc(C3CC3)cc2C2CC2)cc1 [Example 22, N-[4-(3,5-dicyclopropyl-1H-pyrazol-1-yl)phenyl]-2-(pyridin-2-yl)acetamide hydrochloride] | 
91.2% | O=S(=O)(Nc1ccc(-n2nc(C3CC3)cc2C2CC2)cc1)c1ccccc1 [Example 27, N-[4-(3,5-dicyclopropyl-1H-pyrazol-1-yl)phenyl]benzenesulfonamide] | 
82.8% | Cc1ncncc1C(=O)Nc1ccc(-n2nc(C3CC3)cc2C2CC2)cc1 [Example 18, N-[4-(3,5-dicyclopropyl-1H-pyrazol-1-yl)phenyl]-4-methylpyrimidine-5-carboxamide] | 
29.8% | O=C(Nc1ccc(-n2nc(C3CC3)cc2C2CC2)nc1)c1c(Cl)cncc1Cl [Example 50, 3,5-dichloro-N-[6-(3,5-dicyclopropyl-1H-pyrazol-1-yl)pyridin-3-yl]isonicotinamide hydrochloride] | 
38% | O=C(Cc1ccncc1)Nc1ccc(-n2nc(C3CC3)cc2C2CC2)cc1 [Example 24, N-[4-(3,5-dicyclopropyl-1H-pyrazol-1-yl)phenyl]-2-(pyridin-4-yl)acetamide hydrochloride] | 
68% | O=C(Cc1ccncc1)Nc1ccc(-n2nc(C(F)(F)F)cc2C2CC2)cc1 [Example 73, N-{4-[5-cyclopropyl-3-(trifluoromethyl)-1H-pyrazol-1-yl]phenyl}-2-(pyridin-4-yl)acetamide hydrochloride] | 
92.3% | Cc1ncsc1NC(=O)Nc1ccc(-n2nc(C(F)(F)F)cc2C2CC2)cc1 [Example 76, 1-{4-[5-cyclopropyl-3-(trifluoromethyl)-1H-pyrazol-1-yl]phenyl}-3-(4-methylthiazol-5-yl)urea] | 
